Experimental data from patent US20240343726A1, “PYRROLOPYRIDINE-3- AND 4-CARBOXAMIDE COMPOSITIONS AND METHODS FOR CELLULAR PROLIFERATION” (The Rockefeller University, priority 2021, published 2024).
Read-outs that look alike come from different tables or passages of the source.

Tests used:
LATS1 kinase = LATS1 kinase (Homo sapiens (Human), UniProt O95835); experiment: LATS1 Biochemical HTRF Assay
Protocol: LATS1 Biochemical HTRF Assay
MgCl2 and [1 mM] DTT. 1× Enzymatic buffer diluted from 5× Enzymatic buffer*. Add 0.5 μL of 20× compound in 100% DMSO. […] MgCl2, [1 mM] DTIT and [5 mg/mL] BSA. 5×ERR prepared from 5× Enzymatic buffer with [25 mg/mL] BSA. Mix plate on plate shaker set at 1,350 rpm for 30 seconds, then centrifuge plate at 1,000 rpm for 1 minute. Incubate for 30 minutes at 25° C. on plate shaker set to 500 rpm. […] STK Substrate 1-biotin* then add 2 μL [10 mM] ATP. Mix plate on plate shaker set at 1,350 rpm for 30 seconds, then centrifuge plate at 1,000 rpm for 1 minute. Incubate for 40 minutes at 25° C. on plate shaker set to 500 rpm. […] Streptavidin-XL665 with 1×STK Antibody-Cryptate*. Mix plate on plate shaker set at 1,350 rpm for 30 seconds, then centrifuge plate at 1,000 rpm for 1 minute. Incubate for 60 minutes at 25° C. on plate shaker set to 500 rpm, covered from light.
*(Included in Cisbio KinEASE-STK Si HTRF Kit: 62ST1PEC)

phosphorylation of YAP = experiment: pYAP HTRF Assay (HEK 293A Cells); type: cell-based; conditions: HEK293-A, inhibitory activity of phosphorylation of YAP, read-out: LATS1_ICKA_HEK293A IC50
Protocol: Use 3× dilution scheme in DMSO through column 10, lastly diluting further by 10× into column 11. Add 100% DMSO in serum-free and complete medium in columns 1 and 12 as a positive and negative control, respectively. To achieve a dilution of 1:500, use two 0.8 ml 96-well deep-well plates (ThermoFisher AB0765) pre-filled with the medium as intermediate (1:20) and final dilution plate (1:25). (Transfer row-wise) • Flick the cell plate carefully, three to four times or until all wells are clear of any residual liquid. Dispense 50 μL of the compound in medium into respective wells row-wise, incubate at 37° C. for 30 min • After a 30-minute incubation, flick the cell plate carefully, three to four times or until all wells are clear of any residual liquid. Dilute stock Lysis Buffer #4 (4×) in deionized water, complemented with blocking solution, the stock of which is 100×*. Add 75 μL 1× lysis buffer+blocking reagent mix into each well. Mix plate on a shaker for 30 min at room temperature • Dilute stock solution of total/phospho-YAP Eu cryptate & d2 antibody (each) in the ratio of 1:20 with detection buffer. Mix antibody solutions Eu3+ cryptate and d2 (each for total-Yap and phospho-YAP) in the ratio of 1:1*. Transfer 4 μL of the antibody mixture into two separate small-volume 384-well plates assigned for total-YAP and phospho-YAP. Give a short spin to the plates in a benchtop centrifuge set at 1000 rpm for 30 seconds • Row-wise, homogenize the lysate gently by pipetting it up and down, swirling the tip in the well to help scrape off any adherent cells (avoid bubble formation). Row-wise transfer 16 μL cell lysate into the low-volume 384-well plates with 4 μL total-YAP or phospho-YAP antibody reaction mix for a final volume of 20 μL. Spin down the plates in a benchtop centrifuge set at 1000 rpm for 30 seconds • Seal the plates using a vacuum sealer, incubate overnight at room temperature in the dark on a shaker; read the next day • Use a fluorescence emission read using compatible HTRF® reader—BioTek Synergy NEO. […] Included in Cisbio HTRF YAP total kit (#64YATPEH) & YAP phospho-S127 kit (#64YAPPEH).

Yap = Yap nuclear translocation in supporting cells of cultured utricles (immunohistochemical analysis); type: cell-based, mice; conditions: 10 μM, 24 hr of treatment, control=0.6
[1] = tested on: adult utricular supporting cells; experiment: EdU proliferation assay in cultured adult utricles; type: cell-based, mice; conditions: 5 days of treatment, control=20
Protocol: was tested in vitro to explore its mechanism of action and its utility in regenerating hair cells of the ear. The effects of the compounds were tested on utricles isolated from mice eight to twelve weeks of age. Internal ears were dissected from mice euthanized with fluothane and placed into ice-cold Hank's balanced salt solution, and cultured as previously described by Gnedeva, K. & Hudspeth [Proc. Natl. Acad Sci. 112, 14066-14071 (2015)]. For proliferation assays, utricles were cultured with 10 μM 5-ethynyl-2′-deoxyuridine (EdU) that was detected with click chemistry.
After 5 days of treatment, the N-benzyl thiazole evoked robust re-entry into the cell cycle of adult utricular supporting cells, yielding hundreds of EdU+daughter supporting cells (control=20 EdU+ supporting cells; the N-benzyl thiazole-treated=250 EdU+supporting cells; p=0.021 by an unpaired, one-tailed 1-test, control n=2, TO1 n=3).

[2] = 2 mM ATP, read-out: LATS1_HTRF_2 mM ATP IC50

Sequence of LATS1 kinase (O95835 589-1130): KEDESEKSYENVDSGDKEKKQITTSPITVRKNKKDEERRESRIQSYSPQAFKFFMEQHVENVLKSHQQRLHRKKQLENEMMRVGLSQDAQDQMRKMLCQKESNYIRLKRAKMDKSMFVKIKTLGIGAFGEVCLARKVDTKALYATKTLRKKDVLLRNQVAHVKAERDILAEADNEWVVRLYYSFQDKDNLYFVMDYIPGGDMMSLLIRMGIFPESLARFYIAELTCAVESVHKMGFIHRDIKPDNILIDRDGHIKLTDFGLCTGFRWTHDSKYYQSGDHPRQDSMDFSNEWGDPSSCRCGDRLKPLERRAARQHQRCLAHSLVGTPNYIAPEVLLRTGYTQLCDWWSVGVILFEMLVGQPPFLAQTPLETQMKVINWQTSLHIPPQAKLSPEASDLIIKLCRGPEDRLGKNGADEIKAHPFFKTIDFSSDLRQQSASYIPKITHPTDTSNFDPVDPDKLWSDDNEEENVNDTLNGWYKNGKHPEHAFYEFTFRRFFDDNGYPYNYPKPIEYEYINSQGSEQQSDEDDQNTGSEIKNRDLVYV

Structure (SMILES) | IC50 (LATS1 kinase; [2]) [nM] | IC50 (phosphorylation of YAP) [nM] | Yap nuclear translocation, quantified as a ratio to the constitutively expressed protein Sall2 (Yap) | EdU+ supporting cells (re-entry into the cell cycle) [1] | IC50 (LATS1 kinase) [nM]
O=C(/N=C1\SCCN1c1ccccc1O)c1c[nH]c2ncccc12 [Example 6] | 0.59 | 1.3 |  |  | 
O=C(/N=C1\SCCCN1c1ccccc1Cl)c1ccnc2[nH]ccc12 [Example 27] | 200 | 5560 |  |  | 
O=C(/N=c1\sccn1Cc1ccccc1)c1c[nH]c2ncccc12 |  |  | 1.0 | 250 | 
CC(O)CN1CCS/C1=N\C(=O)c1c[nH]c2ncccc12 (stereo not shown) [Example 19, (Z)—N-(3-(2-hydroxypropyl)thiazolidin-2-ylidene)-1H-pyrrolo[2,3-b]pyridine-3-carboxamide] | 210 | 1720 |  |  | 
O=C(/N=C1\SCCN1C1CCCCC1)c1c[nH]c2ncccc12 [Example 11] | 1.1 | 53 |  |  | 
O=C(/N=C1\SCCN1c1ccccc1Cl)c1c[nH]c2ncccc12 [Example 3] | 0.297 | 5.15 |  |  | 
CCc1ccccc1N1CCS/C1=N\C(=O)c1c[nH]c2ncccc12 [Example 4] | 4.2 | 205 |  |  | 
CC1(C)CS/C(=N\C(=O)c2c[nH]c3ncccc23)N1C1CCCCC1 [Example 12] |  | 37 |  |  | 1.1
O=C(/N=C1\SCCN1c1cccc(O)c1)c1c[nH]c2ncccc12 [Example 10] | 1.6 | 39.2 |  |  | 
O=C(/N=C1\SCCN1Cc1ccccc1)c1c[nH]c2ncccc12 [Example 1, (Z)—N-(3-benzylthiazolidin-2-ylidene)-1H-pyrrolo[2,3-b]pyridine-3-carboxamide] | 11.2 | 19.7 |  |  | 
O=C(/N=C1\SCCCN1c1ccccc1)c1c[nH]c2ncccc12 [Example 26] |  | 69 |  |  | 
O=C(/N=C1\SCCN1c1ccccc1Cl)c1ccnc2[nH]ccc12 [Example 17] | 82 | 1480 |  |  | 
O=C(/N=C1\SCC(CO)N1c1ccccc1)c1c[nH]c2ncccc12 (stereo not shown) [Example 13, (Z)—N-(4-(hydroxymethyl)-3-phenylthiazolidin-2-ylidene)-1H-pyrrolo[2,3-b]pyridine-3-carboxamide] | 0.44 | 45 |  |  | 
O=C(/N=C1\SCCCN1Cc1ccccc1)c1c[nH]c2ncccc12 [Example 25] | 2.5 | 77 |  |  | 
O=C(/N=C1\SCCN1c1ccccc1)c1c[nH]c2ncccc12 [Example 2] | 0.829 | 23 |  |  | 
CN(C)CC1CS/C(=N\C(=O)c2c[nH]c3ncccc23)N1c1ccccc1 (stereo not shown) [Example 14, (Z)—N-(4-((dimethylamino)methyl)-3-phenylthiazolidin-2-ylidene)-1H-pyrrolo[2,3-b]pyridine-3-carboxamide] | 4.1 | 71 |  |  | 
O=C(/N=C1\SCCN1c1ccc(O)cc1)c1c[nH]c2ncccc12 [Example 8] | 13 | 687 |  |  | 

Continued, in another order:

IC50 (LATS1 kinase; [2]) [nM] | IC50 (phosphorylation of YAP) [nM] | Structure (SMILES) | Yap nuclear translocation, quantified as a ratio to the constitutively expressed protein Sall2 (Yap) | EdU+ supporting cells (re-entry into the cell cycle) [1] | IC50 (LATS1 kinase) [nM]
15 | 640 | CN(C)Cc1cs/c(=N\C(=O)c2c[nH]c3ncccc23)n1Cc1ccccc1 [Example 65, (Z)—N-(3-benzyl-4-((dimethylamino)methyl)thiazol-2(3H)-ylidene)-1H-pyrrolo[2,3-b]pyridine-3-carboxamide] |  |  | 
1.1 | 147 | O=C(/N=c1\scc(CN2CCOCC2)n1-c1ccccc1Cl)c1c[nH]c2ncccc12 [Example 67] |  |  | 
 | 4.75 | O=C(/N=c1\sccn1-c1ccccc1Cl)c1ccnc2[nH]ccc12 [Example 41] |  |  | 
3.9 | 392 | O=C(/N=C1\SCC(CO)CN1c1ccccc1)c1c[nH]c2ncccc12 (stereo not shown) [Example 35, (Z)—N-(5-(hydroxymethyl)-3-phenyl-1,3-thiazinan-2-ylidene)-1H-pyrrolo[2,3-b]pyridine-3-carboxamide] |  |  | 
23 | 1710 | CNC(=O)C1CS/C(=N\C(=O)c2c[nH]c3ncccc23)N(c2ccccc2)C1 (stereo not shown) [Example 34, (Z)-2-((1H-pyrrolo[2,3-b]pyridine-3-carbonyl)imino)-N-methyl-3-phenyl-1,3-thiazinane-5-carboxamide] |  |  | 
48 | 527 | CNC(=O)c1cs/c(=N\C(=O)c2ccnc3[nH]ccc23)n1-c1ccccc1Cl [Example 58] |  |  | 
1.6 | 109 | O=C(/N=C1\SCCCN1c1ccccc1Cl)c1c[nH]c2ncccc12 [Example 28] |  |  | 
2.8 | 270 | COCCN(C)Cc1cs/c(=N\C(=O)c2c[nH]c3ncccc23)n1-c1ccccc1Cl [Example 68] |  |  | 
1.8 | 68 | CN(C)Cc1cs/c(=N\C(=O)c2c[nH]c3ncccc23)n1C1CCCCC1 [Example 69] |  |  | 
 | 31600 | O=C(/N=c1\sccn1-c1ccccc1Cl)n1ccc2ncccc21 [Example 85] |  |  | 
1.3 | 327 | CN(C)Cc1cs/c(=N\C(=O)c2c[nH]c3ncccc23)n1-c1ccccc1Cl [Example 66, (Z)—N-(3-(2-chlorophenyl)-4-((dimethylamino)methyl)thiazol-2(3H)-ylidene)-1H-pyrrolo[2,3-b]pyridine-3-carboxamide] |  |  | 
2.9 | 39 | O=C(/N=C1\SCCCN1C1CCCCC1)c1c[nH]c2ncccc12 [Example 30] |  |  | 
